In brackets after ≈: the same amount, converted by molar mass. Like-named read-outs stand apart in the source and are kept apart here.
Tests used:
[1] = tested on: Mutans Streptococci Strains; experiment: MIC and MBC, broth dilution, all strains stated together; assay type: cell-based, S. mutans (GS-5 and UA159) and S. sobrinus 6715
Protocol: (§1) The minimum inhibitory concentration (MIC) and minimum bactericidal concentration (MBC) were determined for each test compound according to the National Committee for Clinical Laboratory Standards guidelines (Tentative standard M26-T, 1992; NCCLS Publication No. M7-A5, 2000) and Koo et al. (2000b). The broth microdilution and macrodilution methods (in TSB) were used for the antibacterial tests. The starting inoculum was 5×10^5 CFU/ml and the concentrations of test compounds ranged from 15.6 to 500 μM (two-fold dilutions). The MICs and MBCs were determined in quadruplicate in at least 3 different experiments.

[2] = molecular target: T1, GTF C (Streptococcus mutans serotype c, UniProt P13470); experiment: GTF activity in solution, GTF C; assay type: biochemical; conditions: mean (SD)
T1 construct: The supernatant was carefully collected as the source of GTF C; made in house; host or cells: Streptococcus mutans WHB 410 (endogenous gtfC; urea/Triton extract of washed cells, hydroxyapatite chromatography)
T1 sequence (P13470 35-1455): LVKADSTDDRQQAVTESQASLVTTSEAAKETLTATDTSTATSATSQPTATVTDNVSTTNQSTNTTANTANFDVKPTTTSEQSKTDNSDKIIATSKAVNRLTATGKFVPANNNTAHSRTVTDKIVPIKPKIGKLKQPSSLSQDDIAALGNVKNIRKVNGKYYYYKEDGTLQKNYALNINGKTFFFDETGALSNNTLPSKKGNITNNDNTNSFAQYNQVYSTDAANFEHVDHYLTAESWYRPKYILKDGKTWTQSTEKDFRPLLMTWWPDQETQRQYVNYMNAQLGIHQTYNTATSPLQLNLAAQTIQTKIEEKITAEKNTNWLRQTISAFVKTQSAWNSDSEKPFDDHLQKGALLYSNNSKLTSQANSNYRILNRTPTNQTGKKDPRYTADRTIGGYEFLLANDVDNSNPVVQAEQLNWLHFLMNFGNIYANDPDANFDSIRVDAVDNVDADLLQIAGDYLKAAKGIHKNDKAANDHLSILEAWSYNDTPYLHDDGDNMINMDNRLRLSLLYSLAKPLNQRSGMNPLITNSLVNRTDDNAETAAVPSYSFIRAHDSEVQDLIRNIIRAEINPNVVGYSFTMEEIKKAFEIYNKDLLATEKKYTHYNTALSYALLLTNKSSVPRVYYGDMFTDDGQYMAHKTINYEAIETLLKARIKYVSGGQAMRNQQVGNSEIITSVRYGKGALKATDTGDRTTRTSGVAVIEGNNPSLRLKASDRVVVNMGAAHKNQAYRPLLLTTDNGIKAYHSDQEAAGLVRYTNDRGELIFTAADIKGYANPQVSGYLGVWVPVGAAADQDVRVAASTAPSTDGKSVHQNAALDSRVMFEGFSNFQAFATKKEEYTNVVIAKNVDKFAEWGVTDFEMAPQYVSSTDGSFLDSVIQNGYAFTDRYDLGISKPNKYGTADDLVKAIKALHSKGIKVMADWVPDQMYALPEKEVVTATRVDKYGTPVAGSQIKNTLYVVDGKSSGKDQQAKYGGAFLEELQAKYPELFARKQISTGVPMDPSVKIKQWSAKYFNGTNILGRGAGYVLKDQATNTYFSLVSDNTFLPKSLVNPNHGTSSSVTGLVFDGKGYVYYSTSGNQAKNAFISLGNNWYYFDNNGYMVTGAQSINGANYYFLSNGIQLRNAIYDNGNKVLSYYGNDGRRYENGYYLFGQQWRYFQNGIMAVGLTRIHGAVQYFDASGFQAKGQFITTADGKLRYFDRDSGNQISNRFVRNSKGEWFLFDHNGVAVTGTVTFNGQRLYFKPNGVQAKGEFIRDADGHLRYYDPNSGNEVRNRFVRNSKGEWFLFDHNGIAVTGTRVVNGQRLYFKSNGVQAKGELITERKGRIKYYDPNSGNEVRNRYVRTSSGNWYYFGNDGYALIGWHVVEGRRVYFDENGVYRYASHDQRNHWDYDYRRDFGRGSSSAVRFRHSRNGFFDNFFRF
Protocol: (§2) Glucosyltransferase activity was measured by the incorporation of [^14C-glucose] from labeled sucrose (NEN Research Products, Boston, Mass.) into glucans (Germaine et al., 1974; Venkitaraman et al., 1995). The GTF enzyme added to each sample for all assays was equivalent to the amount required to incorporate 1.0-1.5 μmol of glucose over the four hours reaction (1.0-1.5 units).
(§3) For solution assays, purified GTF B, C, D and Ss were mixed with a two-fold dilution series of the test compounds (concentration ranging from 125 to 500 μM) and incubated with [^14C-glucose]-sucrose substrate (0.2 μCi/ml) (200.0 mmol/l sucrose, 40 μmol/l dextran 9000, 0.02% sodium azide in adsorption buffer—50 mM KCl, 1.0 mM KPO4, 1.0 mM CaCl2, 0.1 mM MgCl2−pH=6.5) to reach a final concentration of 100 mmol/l sucrose (200 μl final volume). For the control, the same reaction was carried out, where ethanol:DMSO (final concentration of 7.5% and 1.25%, v/v) or ethanol (final concentration of 5%, v/v) replaced the test agent solutions. The samples were incubated 37° C. with rocking for 4 h. After incubation, ice-cold ethanol (1.0 ml) was added and the samples were stored for 18 h, 4° C. for precipitation of glucans. Radiolabeled glucan was determined by scintillation counting (Germaine et al., 1974; Venkitaraman et al., 1995).

[3] = molecular target: T2, GTF Ss (Streptococcus sanguinis, UniProt A3CLJ9); experiment: GTF activity adsorbed onto sHA surface, GTF Ss; assay type: biochemical, S. sanguinis; conditions: mean (SD)
Protocol: as §2
(§4) For surface assays, the GTFs were adsorbed to hydroxyapatite beads coated with clarified whole saliva (free of GTF activity), as detailed elsewhere (Koo et al., 2000c; Schilling and Bowen, 1988, Venkitaraman et al., 1995). The saliva-coated hydroxyapatite (sHA) beads were exposed to sufficient enzyme to saturate the surface as determined experimentally. Following the adsorption of the enzyme, the beads were washed 3 times with buffer to remove the loosely bound material and exposed to 300 μl of the two-fold dilution series of test compounds (or control) for 30 min. at the same concentrations described above. The beads were washed and exposed to 300 μl [^14C-glucose]-sucrose substrate (100.0 mmol/l sucrose, final concentration). The radiolabeled glucan formed was collected and quantified by scintillation counting (Germaine et al., 1974; Venkitaraman et al., 1995). All the solution and surface assays were done in quadruplicate in at least 3 different experiments.

[4] = molecular target: T1, GTF C; experiment: GTF activity adsorbed onto sHA surface, GTF C; assay type: biochemical; conditions: mean (SD)
Protocol: as §2, §4

[5] = molecular target: T3, GTF D (Streptococcus mutans serotype c, UniProt P49331); experiment: GTF activity in solution, GTF D; assay type: biochemical; conditions: mean (SD)
T3 construct: made in house; host or cells: Streptococcus milleri NH5 (culture supernatant)
T3 sequence (P49331 whole entry): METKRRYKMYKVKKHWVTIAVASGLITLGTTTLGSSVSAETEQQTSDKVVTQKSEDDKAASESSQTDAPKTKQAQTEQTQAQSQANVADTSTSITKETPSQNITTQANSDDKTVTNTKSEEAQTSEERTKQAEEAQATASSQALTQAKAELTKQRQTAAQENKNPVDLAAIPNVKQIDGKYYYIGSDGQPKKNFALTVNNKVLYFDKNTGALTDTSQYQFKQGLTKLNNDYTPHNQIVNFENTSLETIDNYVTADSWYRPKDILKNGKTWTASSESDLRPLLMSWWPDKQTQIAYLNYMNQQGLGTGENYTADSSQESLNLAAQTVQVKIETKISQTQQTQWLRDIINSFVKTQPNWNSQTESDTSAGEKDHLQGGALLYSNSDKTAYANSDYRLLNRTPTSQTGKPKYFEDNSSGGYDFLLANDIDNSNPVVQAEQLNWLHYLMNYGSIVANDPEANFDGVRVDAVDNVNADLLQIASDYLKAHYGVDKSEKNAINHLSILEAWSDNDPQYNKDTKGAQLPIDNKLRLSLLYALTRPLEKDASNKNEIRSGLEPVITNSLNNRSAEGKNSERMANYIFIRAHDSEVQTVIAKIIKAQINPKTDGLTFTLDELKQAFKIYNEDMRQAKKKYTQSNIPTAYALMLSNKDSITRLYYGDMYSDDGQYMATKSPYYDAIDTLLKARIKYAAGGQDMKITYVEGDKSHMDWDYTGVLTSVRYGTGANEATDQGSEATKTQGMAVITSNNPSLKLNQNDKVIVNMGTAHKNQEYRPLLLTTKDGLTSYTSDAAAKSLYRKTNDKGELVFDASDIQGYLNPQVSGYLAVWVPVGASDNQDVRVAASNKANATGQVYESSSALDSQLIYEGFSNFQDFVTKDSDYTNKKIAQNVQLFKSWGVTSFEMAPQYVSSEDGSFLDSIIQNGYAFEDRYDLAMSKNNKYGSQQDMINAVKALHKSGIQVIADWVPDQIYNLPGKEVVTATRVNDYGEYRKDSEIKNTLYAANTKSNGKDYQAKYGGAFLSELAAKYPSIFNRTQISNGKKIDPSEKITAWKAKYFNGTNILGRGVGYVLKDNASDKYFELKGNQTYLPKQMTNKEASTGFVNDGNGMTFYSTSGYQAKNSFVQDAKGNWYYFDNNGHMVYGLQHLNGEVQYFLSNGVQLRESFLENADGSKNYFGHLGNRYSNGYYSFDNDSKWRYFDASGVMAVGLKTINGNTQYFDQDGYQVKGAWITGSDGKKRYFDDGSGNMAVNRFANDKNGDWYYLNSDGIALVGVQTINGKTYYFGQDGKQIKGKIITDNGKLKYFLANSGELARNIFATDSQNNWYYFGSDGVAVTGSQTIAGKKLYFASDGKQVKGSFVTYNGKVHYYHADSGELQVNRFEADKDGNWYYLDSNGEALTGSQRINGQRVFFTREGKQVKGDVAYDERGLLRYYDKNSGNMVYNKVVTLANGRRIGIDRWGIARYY
Protocol: as §2, §3

[6] = molecular target: T2, GTF Ss; experiment: GTF activity in solution, GTF Ss; assay type: biochemical, S. sanguinis; conditions: mean (SD)
Protocol: as §2, §3

[7] = tested on: Streptococcus sobrinus 6715; experiment: MIC and MBC, broth dilution; assay type: cell-based
Protocol: as §1

[8] = tested on: Streptococcus mutans GS-5; experiment: MIC and MBC, broth dilution; assay type: cell-based
Protocol: as §1

[9] = tested on: Streptococcus mutans UA 159; experiment: MIC and MBC, broth dilution; assay type: cell-based
Protocol: as §1

[10] = molecular target: T4, GTF B (Streptococcus mutans serotype c, UniProt P08987); experiment: GTF activity adsorbed onto saliva-coated hydroxyapatite (sHA) surface, GTF B; assay type: biochemical; conditions: mean (SD)
T4 construct: made in house; host or cells: Streptococcus milleri KSB8 (culture supernatant)
T4 sequence (P08987 35-1476): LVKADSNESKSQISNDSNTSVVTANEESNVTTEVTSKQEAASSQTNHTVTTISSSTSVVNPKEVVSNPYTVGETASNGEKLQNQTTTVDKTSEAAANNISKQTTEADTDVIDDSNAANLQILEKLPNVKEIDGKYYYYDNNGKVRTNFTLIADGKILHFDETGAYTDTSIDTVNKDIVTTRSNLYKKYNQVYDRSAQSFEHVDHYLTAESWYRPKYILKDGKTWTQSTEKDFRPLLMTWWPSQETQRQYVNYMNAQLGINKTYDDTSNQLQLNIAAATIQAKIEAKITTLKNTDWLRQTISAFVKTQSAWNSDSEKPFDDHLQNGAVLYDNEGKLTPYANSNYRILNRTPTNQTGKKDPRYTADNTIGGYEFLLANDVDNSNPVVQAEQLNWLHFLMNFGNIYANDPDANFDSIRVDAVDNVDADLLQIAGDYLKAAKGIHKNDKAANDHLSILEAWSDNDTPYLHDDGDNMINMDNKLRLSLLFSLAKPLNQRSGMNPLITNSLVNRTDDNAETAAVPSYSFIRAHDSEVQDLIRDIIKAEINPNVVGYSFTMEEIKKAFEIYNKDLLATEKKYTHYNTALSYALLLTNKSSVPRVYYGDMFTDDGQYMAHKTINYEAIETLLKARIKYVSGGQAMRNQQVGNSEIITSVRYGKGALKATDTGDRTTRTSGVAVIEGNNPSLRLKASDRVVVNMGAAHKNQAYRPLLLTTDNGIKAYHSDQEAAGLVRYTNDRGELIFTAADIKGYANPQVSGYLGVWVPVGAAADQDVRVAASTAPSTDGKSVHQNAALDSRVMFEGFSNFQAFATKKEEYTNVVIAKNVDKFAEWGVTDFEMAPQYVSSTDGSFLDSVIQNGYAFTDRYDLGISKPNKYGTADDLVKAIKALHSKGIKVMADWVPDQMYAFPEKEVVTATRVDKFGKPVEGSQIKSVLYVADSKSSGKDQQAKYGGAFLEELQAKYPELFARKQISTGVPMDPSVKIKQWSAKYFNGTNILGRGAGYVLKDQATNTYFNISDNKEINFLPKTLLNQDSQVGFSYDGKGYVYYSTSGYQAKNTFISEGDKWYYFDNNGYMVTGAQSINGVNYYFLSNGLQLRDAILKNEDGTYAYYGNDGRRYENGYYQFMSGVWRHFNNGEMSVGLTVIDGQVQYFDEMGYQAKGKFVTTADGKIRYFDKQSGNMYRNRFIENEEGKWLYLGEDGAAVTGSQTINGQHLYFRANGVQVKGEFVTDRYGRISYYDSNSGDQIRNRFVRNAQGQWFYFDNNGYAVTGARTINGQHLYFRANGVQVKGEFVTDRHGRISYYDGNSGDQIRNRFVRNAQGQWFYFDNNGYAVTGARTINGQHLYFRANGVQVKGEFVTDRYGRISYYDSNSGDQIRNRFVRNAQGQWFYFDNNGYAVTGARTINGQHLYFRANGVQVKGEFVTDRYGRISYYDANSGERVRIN
Protocol: as §2, §4

[11] = molecular target: T4, GTF B; experiment: GTF activity in solution, GTF B; assay type: biochemical; conditions: mean (SD)
Protocol: as §2, §3

[12] = molecular target: T3, GTF D; experiment: GTF activity adsorbed onto sHA surface, GTF D; assay type: biochemical; conditions: mean (SD)
Protocol: as §2, §4

[13] = Streptococcus mutans, all strains tested (S. mutans GS-5, UA159, S. sobrinus 6715), read-out: MIC
[14] = all strains tested (S. mutans GS-5, UA159, S. sobrinus 6715), read-out: MIC

SMILES	MIC [1, 13]	GTF C sol. % of Inhib. ([2]; 125 μM)	GTF C sol. % of Inhib. ([2]; 250 μM)	GTF C sol. % of Inhib. ([2]; 500 μM)	GTF Ss surf. % of Inhib. ([3]; 125 μM)	GTF Ss surf. % of Inhib. ([3]; 250 μM)	GTF Ss surf. % of Inhib. ([3]; 500 μM)	GTF C surf. % of Inhib. ([4]; 125 μM)	GTF C surf. % of Inhib. ([4]; 250 μM)	GTF C surf. % of Inhib. ([4]; 500 μM)	GTF D sol. % of Inhib. ([5]; 125 μM)	GTF D sol. % of Inhib. ([5]; 250 μM)	GTF D sol. % of Inhib. ([5]; 500 μM)	GTF Ss sol. % of Inhib. ([6]; 125 μM)	GTF Ss sol. % of Inhib. ([6]; 250 μM)	GTF Ss sol. % of Inhib. ([6]; 500 μM)	MBC ([7]; Streptococcus sobrinus 6715)	MIC ([7]; Streptococcus sobrinus 6715)	MBC [8]	MIC [8]	further results
COc1cc(C=O)ccc1O [Vanillin]	> 500 µM	–	–	–	–	–	–	–	–	–	–	–	–	–	–	–	–	–	–	–	–
O=C1C[C@@H](c2ccccc2)Oc2cc(O)cc(O)c21 [Pinocembrin]	–	0.0 (0.7) %	8.5 (3.2) %	17.2 (4.2) %	0.0 (0.2) %	0.0 (4.2) %	10.5 (2.7) %	0.0 (0.0) %	0.4 (0.1) %	13.5 (4.9) %	1.5 (0.1) %	4.8 (2.7) %	14.9 (4.2) %	25.7 (4.1) %	32.6 (6.8) %	45.7 (8.3) %	500 µM	250 µM (≈ 64.1 µg/mL)	>500 µM	250 µM (≈ 64.1 µg/mL)	MBC ([7]; S. sobrinus 6715): 128 µg/mL; MBC [9]: >500 µM; MIC [9]: 250 µM (≈ 64.1 µg/mL); GTF B surf. % of Inhib. ([10]; 125 μM): 0.7 (3.3) %; GTF B surf. % of Inhib. ([10]; 250 μM): 8.8 (4.3) %; GTF B surf. % of Inhib. ([10]; 500 μM): 18.9 (5.4) %; MIC ([1]; all strains tested): 64 µg/mL; MIC [1, 14]: 250 µM; GTF B sol. % of Inhib. ([11]; 125 μM): 3.7 (5.2) %; GTF B sol. % of Inhib. ([11]; 250 μM): 7.2 (1.6) %; GTF B sol. % of Inhib. ([11]; 500 μM): 15.9 (4.7) %; GTF D surf. % of Inhib. ([12]; 125 μM): 0.0 (0.7) %; GTF D surf. % of Inhib. ([12]; 250 μM): 8.2 (2.7) %; GTF D surf. % of Inhib. ([12]; 500 μM): 15.5 (6.2) %
COc1cc(/C=C/C(=O)O)ccc1O [Ferulic acid]	> 500 µM	–	–	–	–	–	–	–	–	–	–	–	–	–	–	–	–	–	–	–	–
O=c1cc(-c2ccc(O)c(O)c2)oc2cc(O)cc(O)c12 [Luteolin]	> 500 µM	–	–	–	–	–	–	–	–	–	–	–	–	–	–	–	–	–	–	–	–
CC(=O)O[C@H]1C(=O)c2c(O)cc(O)cc2O[C@@H]1c1ccccc1 [Pinobanksin-3-acetate]	–	0.0 (0.0) %	3.5 (4.2) %	16.7 (4.3) %	0.0 (0.6) %	0.0 (2.7) %	9.9 (5.9) %	0.0 (0.1) %	0.0 (0.0) %	0.0 (3.3) %	5.5 (4.5) %	2.7 (3.3) %	3.5 (2.1) %	4.6 (5.7) %	22.8 (3.6) %	30.5 (7.2) %	>500 µM	250 µM (≈ 78.6 µg/mL)	>500 µM	500 µM (≈ 157 µg/mL)	MBC [9]: >500 µM; MIC [9]: 500 µM (≈ 157 µg/mL); GTF B surf. % of Inhib. ([10]; 125 μM): 9.4 (4.8) %; GTF B surf. % of Inhib. ([10]; 250 μM): 7.3 (2.1) %; GTF B surf. % of Inhib. ([10]; 500 μM): 10.3 (3.5) %; MIC ([1]; all strains tested): 157 µg/mL; MIC [1, 14]: 500 µM; GTF B sol. % of Inhib. ([11]; 125 μM): 0.0 (0.8) %; GTF B sol. % of Inhib. ([11]; 250 μM): 7.7 (3.5) %; GTF B sol. % of Inhib. ([11]; 500 μM): 18.9 (2.8) %; GTF D surf. % of Inhib. ([12]; 125 μM): 0.0 (0.0) %; GTF D surf. % of Inhib. ([12]; 250 μM): 4.5 (2.0) %; GTF D surf. % of Inhib. ([12]; 500 μM): 10.1 (2.8) %
O=C(O)/C=C/c1ccc(O)c(O)c1 [Caffeic acid]	> 500 µM	–	–	–	–	–	–	–	–	–	–	–	–	–	–	–	–	–	–	–	–

From US20040057908A1, “Oral compositions and use thereof” (priority 2003, published 2004)
